Experiment in all cases: DTP human tumour cell line panel, 48 h
For experiment [1], the system named is DMS 114 small cell lung.
For experiment [2], the system named is KM20L2 colon.
Experiment [3] concerns DMS 273 small cell lung.
In experiment [4] the test system is LXFL 529 NSCLC.
Experiment [5] relates to DLD-1 colon.
Experiment [6] relates to HCT-15 colon.
Experiment [7] has as its system M19-MEL melanoma.
The subject of experiment [8] is 786-0 renal.
Experiment [9] concerns MDA-N.
The subject of experiment [10] is SF-539 CNS.
The test system of experiment [11] is BT-549 breast.
Experiment [12] has as its system XF 498 CNS.
The subject of experiment [13] is RXF-631 renal.
For experiment [14], the system named is HOP-18 NSCLC.
For experiment [15], the system named is SNB-78 CNS.

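Cultured in 96-well plates, cells were exposed to test compound for 48 hours across five concentrations. GI50 = concentration required for 50% inhibition of growth. TGI marks complete inhibition of growth.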

For the molecule `CN1C(=O)CN2C(Cl)(Cl)C2(c2ccccc2F)c2cc([N+](=O)[O-])ccc21` (configuration not stated), the TGI in experiment [1], in experiment [2], in [3], in [4], in [5] and in [6] was over 100 µM in each case. The TGI (commonly the concentration giving total growth inhibition) in experiment [7] was over 100 µM.

Consider `CC(C)OC(=O)Nc1cccc(Cl)c1`, for which the TGI in experiment [8], in [9], in experiment [10], in [11] and in experiment [6] was over 100 µM throughout.

Consider `COc1ccc(CC2c3cc(OC)c(OC)c(OC)c3CC[N+]2(C)C)cc1Oc1ccc(CC2c3cc4c(c(OC)c3CC[N+]2(C)C)OCO4)cc1` (configuration not stated), for which the TGI in experiment [8], in experiment [11] and in [6] was over 100 µM throughout.

Regarding `Nc1nc(Cl)cc(NCCCNc2cc(Cl)nc(N)n2)n1`, the TGI in [1], in experiment [2], in [3], in [10], in experiment [4] and in experiment [12] was over 100 µM in each case. The TGI in experiment [13], in experiment [5], in [6], in experiment [14] and in experiment [7] was over 100 µM in each case.

Turning to `Cn1cc(-c2csc(-c3cn(C)c4ccc(Br)cc34)n2)c2cnccc21`, in [10], the GI50 (usually the concentration at which growth is held to half of that of the control) is 1.8 µM and the TGI came to 3.23 µM. In experiment [6], the GI50 was 1.75 µM and the TGI is 3.25 µM.

Regarding `CC(N)C(=O)OCN1C(=O)C2C3C=CC(C2C1=O)C1C2C(=O)N(COC(=O)C(C)N)C(=O)C2C31` (configuration not stated), the TGI in experiment [8] was 37.6 µM; in experiment [1], 36.5 µM; in experiment [2], 72.2 µM; in experiment [3], 36.7 µM; in experiment [15], over 100 µM; in [10], 47.2 µM. In addition, the TGI in experiment [4] is 60.8 µM; in experiment [12], 47.5 µM; in experiment [5], 54.4 µM; in [6] it was 37.9 µM; in [14] it was over 100 µM; in [7], 40 µM.

With `NC(=O)c1ccc(NS(=O)(=O)c2ccc(N)cc2)nc1`, the TGI in experiment [8], in experiment [9], in [11] and in experiment [6] was over 100 µM each time.

Regarding `COC(=O)C(=O)C(C(=O)C1=NS(=O)(=O)c2cc(S(N)(=O)=O)c(Cl)cc2N1)c1nc2ccc(C(=O)c3ccccc3)cc2[nH]c1=O` (configuration not stated), the TGI in experiment [8], in experiment [2], in [3], in [15], in experiment [10] and in [4] was over 100 µM in each case. For the same molecule, the TGI in experiment [12], in [13], in [6], in [14] and in experiment [7] was over 100 µM each time.

With `Cc1cccc(O)c1-c1nnc(CCCCCCCCc2nnc(-c3c(C)cccc3O)n2N)n1N`, the TGI in experiment [9], in experiment [10], in [11] and in experiment [6] was over 100 µM in each case.

Take `Cc1ccc(S(=O)(=O)N2c3ccccc3[C@H]3CCc4c([nH]c5ccccc45)[C@H]32)cc1`: the TGI in [9], in [10] and in experiment [11] was over 100 µM in each case.

With `c1ccc(CSC2(SCc3ccccc3)CCCC2)cc1`, the TGI in experiment [9], in experiment [10] and in experiment [6] was over 10 µM in each case.

(Values after PubChem BioAssay (NCI).)
